Laboratory results reported in the supplement of paper PMC10307832.

Key:
Assay in all cases: relative viability (nuclei count vs DMSO), 5 days (fraction); higher = more cells survive
Crenolanib + Dasatinib = compound: CC1(COc2ccc3c(c2)ncn3-c2ccc3cccc(N4CCC(N)CC4)c3n2)COC1 [Crenolanib] + Cc1nc(Nc2ncc(C(=O)Nc3c(C)cccc3Cl)s2)cc(N2CCN(CCO)CC2)n1 [Dasatinib] (partner 0.075 µM)
Method in brief: (§1)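 Values are medians from duplicate plates. Each reflects relative viability, defined as the nuclei count of treated wells over that of vehicle wells. Lung cancer cell lines in 1536-well plates were pin-tool dosed one day after seeding with one drug alone or with a fixed anchor-drug dose plus five library-drug doses (not always all listed) in √10 steps, then fixed, stained and imaged at 4× after 5 days.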

Tivantinib + Foretinib = compound: O=C1NC(=O)[C@@H](c2cn3c4c(cccc24)CCC3)[C@@H]1c1c[nH]c2ccccc12 [Tivantinib] + COc1cc2c(Oc3ccc(NC(=O)C4(C(=O)Nc5ccc(F)cc5)CC4)cc3F)ccnc2cc1OCCCN1CCOCC1 [Foretinib] (partner 0.25 µM)
Method in brief: as §1

Tivantinib + Pictilisib = compound: O=C1NC(=O)[C@@H](c2cn3c4c(cccc24)CCC3)[C@@H]1c1c[nH]c2ccccc12 [Tivantinib] + CS(=O)(=O)N1CCN(Cc2cc3nc(-c4cccc5[nH]ncc45)nc(N4CCOCC4)c3s2)CC1 [Pictilisib] (partner 1 µM)
Method in brief: as §1

Tivantinib + Trametinib = compound: O=C1NC(=O)[C@@H](c2cn3c4c(cccc24)CCC3)[C@@H]1c1c[nH]c2ccccc12 [Tivantinib] + CC(=O)Nc1cccc(-n2c(=O)n(C3CC3)c(=O)c3c(Nc4ccc(I)cc4F)n(C)c(=O)c(C)c32)c1 [Trametinib] (partner 0.02 µM)
Method in brief: as §1

Cell Line	relative viability (Crenolanib + Dasatinib; first compound 0.01 µM)	relative viability (Crenolanib + Dasatinib; first compound 0.03162 µM)	relative viability (Crenolanib + Dasatinib; first compound 0.1 µM)	relative viability (Crenolanib + Dasatinib; first compound 0.3162 µM)	relative viability (Crenolanib + Dasatinib; first compound 1 µM)	relative viability (Tivantinib + Foretinib; first compound 0.01 µM)	relative viability (Tivantinib + Foretinib; first compound 0.03162 µM)	relative viability (Tivantinib + Foretinib; first compound 0.1 µM)	relative viability (Tivantinib + Foretinib; first compound 0.3162 µM)	relative viability (Tivantinib + Pictilisib; first compound 0.01 µM)	relative viability (Tivantinib + Pictilisib; first compound 0.03162 µM)	relative viability (Tivantinib + Pictilisib; first compound 0.1 µM)	relative viability (Tivantinib + Pictilisib; first compound 0.3162 µM)	relative viability (Tivantinib + Trametinib; first compound 0.01 µM)	relative viability (Tivantinib + Trametinib; first compound 0.03162 µM)	relative viability (Tivantinib + Trametinib; first compound 0.1 µM)	relative viability (Tivantinib + Trametinib; first compound 0.3162 µM)
ABC-1	0.566	0.718	0.538	0.608	0.564	0.936	0.995	1.09	1.15	0.802	0.51	0.681	0.731	–	–	–	–
SW 900	0.719	0.725	0.595	0.581	0.404	0.831	0.934	0.818	0.888	–	–	–	–	0.775	0.649	0.734	0.763
PC-14	0.289	0.262	0.259	0.263	0.266	0.93	0.893	0.984	1.05	0.584	0.718	0.723	0.292	0.671	0.811	0.753	0.452
NCI-H1648	–	–	–	–	–	–	–	–	–	–	–	–	–	–	0.505	0.343	0.31
A549	–	–	–	–	–	0.977	1.03	0.913	0.889	0.495	0.518	0.468	0.449	–	–	–	–
A-427	0.693	0.723	0.699	0.688	0.64	1.06	1.24	0.97	0.848	0.663	0.702	0.677	0.749	0.795	0.786	0.737	0.673
NCI-H1915	0.306	0.271	0.304	0.294	0.223	1.11	1.06	1.08	1.07	0.902	0.92	0.93	1.04	0.287	0.294	0.282	0.276
LOU-NH91	0.598	0.53	0.527	0.559	0.593	0.901	0.925	0.939	0.573	0.517	0.485	0.521	0.519	0.724	0.762	0.81	0.691
NCI-H1734	0.502	0.427	0.468	0.465	0.453	0.952	0.937	0.743	0.598	0.479	0.395	0.416	0.469	0.611	0.676	0.677	0.604
LCLC-97TM1	0.877	0.883	0.857	0.949	0.67	0.993	0.928	0.911	0.888	0.199	0.14	0.234	0.181	0.211	0.218	0.189	0.178
RERF-LC-KJ	0.81	0.961	0.933	0.956	0.733	0.911	0.908	0.85	0.883	0.543	0.618	0.51	0.461	0.875	0.845	0.855	0.688
BEN	0.281	0.256	0.363	0.345	0.323	0.602	0.535	0.616	0.559	0.703	0.41	0.501	0.432	1.13	0.94	1.01	0.769
NCI-H1703	–	–	–	–	–	0.384	0.335	0.319	0.307	0.215	0.24	0.236	0.228	–	–	–	–
LCLC-103H	0.444	0.454	0.477	0.457	0.428	0.783	0.68	0.735	0.663	0.684	0.517	0.704	0.63	0.6	0.736	0.69	0.668
SW 1573	0.539	0.48	0.591	0.558	0.553	1.04	0.83	0.804	0.863	0.491	0.52	0.406	0.472	0.682	0.488	0.561	0.452
ChaGo-K-1	0.6	0.579	0.617	0.585	0.604	0.846	0.904	0.838	0.559	0.851	0.608	0.757	0.646	0.894	0.88	0.867	0.842
Calu-6	–	–	–	–	–	0.931	0.924	0.806	0.725	0.917	0.931	0.901	0.889	–	–	–	–
HCC-44	–	–	–	–	–	–	–	–	–	0.69	0.523	0.886	0.728	1.04	1.11	1.02	1.02
NCI-H2342	0.338	0.304	0.307	0.338	0.316	1.08	1.15	0.948	0.682	–	–	–	–	0.749	0.764	0.782	0.665
EBC-1	–	–	–	–	–	0.117	0.107	0.0799	0.0958	0.492	0.444	0.471	0.345	–	–	–	–
NCI-H522	0.987	1.01	0.899	0.854	0.975	–	–	–	–	–	–	–	–	0.859	0.605	0.815	0.645
NCI-H1299	–	–	–	–	–	1.1	1.04	1.04	1.07	0.9	0.857	0.695	0.807	–	–	–	–
IA-LM	–	–	–	–	–	1.01	1.15	0.983	1.12	0.401	0.334	0.343	0.218	–	–	–	–
NCI-H1792	0.779	0.777	0.751	0.866	0.747	–	–	–	–	0.343	0.235	0.288	0.186	0.421	–	0.394	0.37
